# Test results reported in US9382197B2, “Substituted hydroxamic acids and uses thereof” (Millennium Pharmaceuticals, Inc., priority 2010, dated 2016).
# Target: T1, purified human HDAC6 (Homo sapiens, UniProt Q9UBN7)
# T1 construct: purchased BPS Bioscience 5006
# T1 sequence (Q9UBN7 1-1215): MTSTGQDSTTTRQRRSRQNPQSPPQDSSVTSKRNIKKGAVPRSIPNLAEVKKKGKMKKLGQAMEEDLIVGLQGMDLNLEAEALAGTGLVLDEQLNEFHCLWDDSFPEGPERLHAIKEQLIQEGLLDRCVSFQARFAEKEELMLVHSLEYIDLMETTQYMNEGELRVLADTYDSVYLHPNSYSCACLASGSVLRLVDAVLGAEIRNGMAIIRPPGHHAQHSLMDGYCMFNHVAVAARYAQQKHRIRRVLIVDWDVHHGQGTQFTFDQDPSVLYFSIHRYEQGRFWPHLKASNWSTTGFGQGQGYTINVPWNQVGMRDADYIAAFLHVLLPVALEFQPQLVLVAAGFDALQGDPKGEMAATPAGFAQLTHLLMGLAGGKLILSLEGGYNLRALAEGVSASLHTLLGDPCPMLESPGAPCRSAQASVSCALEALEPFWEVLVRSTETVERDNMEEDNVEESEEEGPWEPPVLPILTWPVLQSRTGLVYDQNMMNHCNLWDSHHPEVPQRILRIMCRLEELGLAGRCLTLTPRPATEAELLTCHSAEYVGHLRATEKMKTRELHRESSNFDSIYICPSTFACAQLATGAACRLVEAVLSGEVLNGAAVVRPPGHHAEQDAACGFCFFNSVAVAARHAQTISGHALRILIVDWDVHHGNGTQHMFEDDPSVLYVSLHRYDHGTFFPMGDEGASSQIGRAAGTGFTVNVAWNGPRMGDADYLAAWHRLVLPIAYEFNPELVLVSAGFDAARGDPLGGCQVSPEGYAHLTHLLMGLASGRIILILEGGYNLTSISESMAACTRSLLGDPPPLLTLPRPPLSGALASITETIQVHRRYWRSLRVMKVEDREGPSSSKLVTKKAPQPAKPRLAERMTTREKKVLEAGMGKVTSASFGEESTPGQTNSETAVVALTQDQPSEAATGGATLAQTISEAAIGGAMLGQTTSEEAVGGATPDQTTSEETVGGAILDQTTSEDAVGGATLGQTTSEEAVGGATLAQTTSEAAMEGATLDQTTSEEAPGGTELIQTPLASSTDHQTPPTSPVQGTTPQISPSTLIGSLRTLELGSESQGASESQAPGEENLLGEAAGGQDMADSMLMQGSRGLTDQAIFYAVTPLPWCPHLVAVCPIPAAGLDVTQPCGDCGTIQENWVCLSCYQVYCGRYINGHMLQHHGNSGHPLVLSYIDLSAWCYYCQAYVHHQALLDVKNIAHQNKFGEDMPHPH
# Assay: HDAC6 Enzyme Assay
# Assay type: biochemical
# Experimental: To measure the inhibition of HDAC6 activity, purified human HDAC6 (BPS Bioscience; Cat. No. 5006) is incubated with substrate Ac-Arg-Gly-Lys(Ac)-AMC peptide (Bachem Biosciences; Cat. No. 1-1925) for 1 hour at 30° C. in the presence of test compounds or vehicle DMSO control. The reaction is stopped with the HDAC inhibitor trichostatin A (Sigma; Cat. No. T8552) and the amount of Arg-Gly-Lys-AMC generated is quantitated by digestion with trypsin (Sigma; Cat. No. T1426) and subsequent measurement of the amount of AMC released using a fluorescent plate reader (Pherastar; BMG Technologies) set at Ex 340 nm and Em 460 nm. Concentration response curves are generated by calculating the fluorescence increase in test compound-treated samples relative to DMSO-treated controls, and enzyme inhibition (IC50) values are determined from those curves.
# [1] = purified human HDAC6, substrate Ac-Arg-Gly-Lys(Ac)-AMC, 1 hour at 30° C., reported as bins
# [2] = bin: greater than 500 nM and less than 1 μM (lower bound in nM, upper bound in μM)
IC50 [1] [nM],further results,SMILES
100 to 500,–,"CCS(=O)(=O)NC(C)c1ccc(C(=O)NO)cc1 (stereo not drawn) [Compound I-1, 4-{1-[(ethylsulfonyl)amino]ethyl}-N-hydroxybenzamide]"
100 to 500,–,"CC(NS(=O)(=O)c1ccc(F)cc1)c1ccc(C(=O)NO)cc1 (stereo not drawn) [Compound I-2, 4-(1-{[(4-fluorophenyl)sulfonyl]amino}ethyl)-N-hydroxybenzamide]"
< 100,–,"CC(NC(=O)C12CC3CC(CC(C3)C1)C2)c1ccc(C(=O)NO)cc1 (stereo not drawn) [Compound I-3, N-(1-{4-[(hydroxyamino)carbonyl]phenyl}ethyl)adamantane-1-carboxamide]"
< 100,–,"CC(C)(C)C(NC(=O)c1cc2ccccc2o1)c1ccc(C(=O)NO)cc1 (stereo not drawn) [Compound I-4, N-(1-{4-[(hydroxyamino)carbonyl]phenyl}-2,2-dimethylpropyl)-1-benzofuran-2-carboxamide]"
< 100,–,"C[C@@H](NC(=O)c1cc2oc(-c3ccccc3)cc2n1C)c1ccc(C(=O)NO)cc1 [Compound I-5, N-((1R)-1-{4-[(hydroxyamino)carbonyl]phenyl}ethyl)-4-methyl-2-phenyl-4H-furo[3,2-b]pyrrole-5-carboxamide]"
< 100,–,"CC(NC(=O)Nc1cccc2ccccc12)c1ccc(C(=O)NO)cc1 (stereo not drawn) [Compound I-6, N-hydroxy-4-(1-{[(1-naphthylamino)carbonyl]amino}ethyl)benzamide]"
< 100,–,"Cc1c(C(=O)NC(C)c2ccc(C(=O)NO)cc2)oc2ccccc12 (stereo not drawn) [Compound I-7, N-(1-{4-[(hydroxyamino)carbonyl]phenyl}ethyl)-3-methyl-1-benzofuran-2-carboxamide]"
< 100,–,"Cc1ccc(F)c(C(=O)NC(C)c2ccc(C(=O)NO)cc2)c1 (stereo not drawn) [Compound I-8, 2-fluoro-N-(1-{4-[(hydroxyamino)carbonyl]phenyl}ethyl)-5-methylbenzamide]"
–,IC50 [2]: 500 to 1000 nM,"Cc1cc(C(=O)NC(c2ccc(C(=O)NO)cc2)C(C)(C)C)c(C)o1 (stereo not drawn) [Compound I-9, N-(1-{4-[(hydroxyamino)carbonyl]phenyl}-2,2-dimethylpropyl)-2,5-dimethyl-3-furamide]"
100 to 500,–,"CC(NC(=O)c1c[nH]c2ccccc12)c1cccc(C(=O)NO)c1 (stereo not drawn) [Compound I-10, N-(1-{3-[(hydroxyamino)carbonyl]phenyl}ethyl)-1H-indole-3-carboxamide]"
< 100,–,"CC(C)C(NC(=O)c1ccc(-c2ccccc2)cc1)c1ccc(C(=O)NO)cc1 (stereo not drawn) [Compound I-11, N-(1-{4-[(hydroxyamino)carbonyl]phenyl}-2-methylpropyl)biphenyl-4-carboxamide]"
< 100,–,"Cc1c(C(=O)N[C@H](C)c2ccc(C(=O)NO)cc2)sc2ccccc12 [Compound I-12, N-((1R)-1-{4-[(hydroxyamino)carbonyl]phenyl}ethyl)-3-methyl-1-benzothiophene-2-carboxamide]"
–,IC50 [2]: 500 to 1000 nM,"CC(NC(=O)Cc1csc2ccc(Cl)cc12)c1cccc(C(=O)NO)c1 (stereo not drawn) [Compound I-13, 3-(1-{[(5-chloro-1-benzothien-3-yl)acetyl]amino}ethyl)-N-hydroxybenzamide]"
< 100,–,"CCC[C@@H](NC(=O)C12CC3CC(CC(C3)C1)C2)c1ccc(C(=O)NO)cc1 [Compound I-15, N-((1R)-1-{4-[(hydroxyamino)carbonyl]phenyl}butyl)adamantane-1-carboxamide]"
100 to 500,–,"C[C@@H](NC(=O)c1cc2oc(-c3ccccc3)cc2n1C)c1cccc(C(=O)NO)c1 [Compound I-16, N-((1R)-1-{3-[(hydroxyamino)carbonyl]phenyl}ethyl)-4-methyl-2-phenyl-4H-furo[3,2-b]pyrrole-5-carboxamide]"
100 to 500,–,"Cc1nc(-c2ccccc2)ncc1C(=O)NC(c1ccc(C(=O)NO)cc1)C(C)C (stereo not drawn) [Compound I-17, N-(1-{4-[(hydroxyamino)carbonyl]phenyl}-2-methylpropyl)-4-methyl-2-phenylpyrimidine-5-carboxamide]"
< 100,–,"CCC[C@@H](NC(=O)NC12CC3CC(CC(C3)C1)C2)c1ccc(C(=O)NO)cc1 [Compound I-18, 4-[(1R)-1-({[1-adamantylamino]carbonyl}amino)butyl]-N-hydroxybenzamide]"

IC50 [1] [nM],further results,SMILES
< 100,–,"COc1ccc(C(=O)N[C@@H](c2ccc(C(=O)NO)cc2)C(C)C)cc1 [Compound I-19, N-((1R)-1-{4-[(hydroxyamino)carbonyl]phenyl}-2-methylpropyl)-4-methoxybenzamide]"
100 to 500,–,"CC(NC(=O)Nc1ccc(Oc2ccccc2)cc1)c1ccc(C(=O)NO)cc1 (stereo not drawn) [Compound I-20, N-hydroxy-4-[1-({[(4-phenoxyphenyl)amino]carbonyl}amino)ethyl]benzamide]"
100 to 500,–,"CC(NC(=O)C1CCC1)c1ccc(C(=O)NO)cc1 (stereo not drawn) [Compound I-21, 4-{1-[(cyclobutylcarbonyl)amino]ethyl}-N-hydroxybenzamide]"
< 100,–,"CC(C)[C@@H](NC(=O)c1cc2ccccc2o1)c1ccc(C(=O)NO)cc1 [Compound I-22, N-((1R)-1-{4-[(hydroxyamino)carbonyl]phenyl}-2-methylpropyl)-1-benzofuran-2-carboxamide]"
100 to 500,–,"COc1cccc(S(=O)(=O)NC(C)c2ccc(C(=O)NO)cc2)c1 (stereo not drawn) [Compound I-23, N-hydroxy-4-(1-{[(3-methoxyphenyl)sulfonyl]amino}ethyl)benzamide]"
–,IC50 (bin: greater than 1 μM): > 1000 nM,"CC(NC(=O)Cc1c(F)cccc1Cl)c1ccc(C(=O)NO)cc1 (stereo not drawn) [Compound I-24, 4-(1-{[(2-chloro-6-fluorophenyl)acetyl]amino}ethyl)-N-hydroxybenzamide]"
< 100,–,"C[C@H](NC(=O)c1cccn1C)c1ccc(C(=O)NO)cc1 [Compound I-25, N-((1S)-1-{4-[(hydroxyamino)carbonyl]phenyl}ethyl)-1-methyl-1H-pyrrole-2-carboxamide]"
< 100,–,"C[C@@H](NC(=O)C1(C)CCCCC1)c1ccc(C(=O)NO)cc1 [Compound I-26, N-hydroxy-4-((1R)-1-{[(1-methylcyclohexyl)carbonyl]amino}ethyl)benzamide]"
–,IC50 [2]: 500 to 1000 nM,"Cc1cc(C)c(CC(=O)NC(c2ccc(C(=O)NO)cc2)C(C)C)c(C)c1 (stereo not drawn) [Compound I-28, N-hydroxy-4-{1-[(mesitylacetyl)amino]-2-methylpropyl}benzamide]"
–,IC50 [2]: 500 to 1000 nM,"Cc1nc(C(=O)NC(C)c2cccc(C(=O)NO)c2)cs1 (stereo not drawn) [Compound I-29, N-(1-{3-[(hydroxyamino)carbonyl]phenyl}ethyl)-2-methyl-1,3-thiazole-4-carboxamide]"
< 100,–,"CC(C)C(NC(=O)c1cccn1C)c1ccc(C(=O)NO)cc1 (stereo not drawn) [Compound I-30, N-(1-{4-[(hydroxyamino)carbonyl]phenyl}-2-methylpropyl)-1-methyl-1H-pyrrole-2-carboxamide]"
< 100,–,"CC(NC(=O)Nc1ccccc1Oc1ccccc1)c1ccc(C(=O)NO)cc1 (stereo not drawn) [Compound I-31, N-hydroxy-4-[1-({[(2-phenoxyphenyl)amino]carbonyl}amino)ethyl]benzamide]"
< 100,–,"CC(C)C(NC(=O)c1cc2ccccc2o1)c1ccc(C(=O)NO)cc1 (stereo not drawn) [Compound I-32, N-(1-{4-[(hydroxyamino)carbonyl]phenyl}-2-methylpropyl)-1-benzofuran-2-carboxamide]"
–,IC50 (bin: greater than 1 μM): > 1000 nM,"COc1ccccc1CC(=O)NC(C)c1ccc(C(=O)NO)cc1 (stereo not drawn) [Compound I-34, N-hydroxy-4-(1-{[(2-methoxyphenyl)acetyl]amino}ethyl)benzamide]"
< 100,–,"CC(NC(=O)c1cn2cc(Cl)ccc2n1)c1ccc(C(=O)NO)cc1 (stereo not drawn) [Compound I-35, 6-chloro-N-(1-{4-[(hydroxyamino)carbonyl]phenyl}ethyl)imidazo[1,2-a]pyridine-2-carboxamide]"
–,IC50 (bin: greater than 1 μM): > 1000 nM,"CC(C)C(=O)NC(C)c1ccc(C(=O)NO)cc1 (stereo not drawn) [Compound I-36, N-hydroxy-4-[1-(isobutyrylamino)ethyl]benzamide]"
